Results as given in US6417010B1, “Methods and apparatus for synthesizing labeled combinatorial chemistry libraries” (Discovery Partners International, priority 1993, dated 2002).

System: Monoclonal antibody 3E7
Assay: Magnetic selection of peptide-bearing ELAMS by microbead-conjugated 3E7 antibody
Assay type: binding
Details: PBS, 16 hour incubation at 4° C., high strength magnet
Description: After a 16 hour incubation at 4° C., beads which bind the 3E7 antibody can be selected using a high strength magnet. The identifier information of the selected beads is then analyzed with a model DAS-4001EM or DAS-4001 detector (Bio Medic Data Systems).

Tyr-Gly-Gly-L-Phe-L-Leu [YGGFL]
selection of ELAMS by the 3E7 antibody: selected by the 3E7 antibody
